The numbers were not newly measured in patent US20080171724A1, “Phosphonate Derivatives of Mycophenolic Acid” (GILEAD SCIENCES, INC., priority 2004, published 2008), which cites them from elsewhere.

The conditions of this data set: after oral or intravenous administration; converted to active metabolite mycophenolic acid.

As to `COc1c(C)c2c(c(O)c1C/C=C(\C)CCC(=O)OCCN1CCOCC1)C(=O)OC2` [Mycophenolate mofetil], the “fraction of the drug cleared by glucuronidation and excreted in the urine” value was “over 90%”.
